Measurements from publication PMC10657467, “Mechanically-primed voltage-gated proton channels from angiosperm plants” (Nature Communications, 2023).

Tests used:
Assay type in all cases: cell-based
[1] = biological target: T1, AtHv1 (Arabidopsis thaliana, UniProt Q9SGX2); assay: inside-out patch-clamp of proton currents
T1 construct: gene At1g10800; full-length channel (NP_001321473.1, 236 a.a.) expressed in Xenopus oocytes, after mechanical stimulus
T1 sequence (Q9SGX2 1-236): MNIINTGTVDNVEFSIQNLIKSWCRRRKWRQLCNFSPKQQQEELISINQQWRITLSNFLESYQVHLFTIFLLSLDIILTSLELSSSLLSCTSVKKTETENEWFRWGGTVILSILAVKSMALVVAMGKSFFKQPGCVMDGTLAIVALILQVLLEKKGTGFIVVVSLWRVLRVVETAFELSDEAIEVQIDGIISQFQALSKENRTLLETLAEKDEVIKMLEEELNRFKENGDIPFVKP

[2] = biological target: T2, PsHv1 (Picea sitchensis, UniProt B8LLA1); assay: inside-out patch-clamp of proton currents, Hill fit
T2 construct: full-length channel (ABR16431.1, 260 a.a.) expressed in Xenopus oocytes
T2 sequence (B8LLA1 1-260): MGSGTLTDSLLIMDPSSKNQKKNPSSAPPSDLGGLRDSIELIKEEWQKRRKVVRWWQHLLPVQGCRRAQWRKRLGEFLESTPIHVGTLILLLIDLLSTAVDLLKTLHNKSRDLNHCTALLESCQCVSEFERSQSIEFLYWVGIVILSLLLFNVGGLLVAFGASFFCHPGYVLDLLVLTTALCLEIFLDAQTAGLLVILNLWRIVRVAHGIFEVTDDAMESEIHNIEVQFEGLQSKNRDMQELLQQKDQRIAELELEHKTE

[3] = biological target: T3, SmHv1 (Selaginella moellendorffii, UniProt D8SZW5); assay: inside-out patch-clamp of proton currents
T3 construct: gene SELMODRAFT_128853; full-length channel (EFJ10096.1, 242 a.a.) expressed in Xenopus oocytes, after mechanical stimulus
T3 sequence (D8SZW5 1-242): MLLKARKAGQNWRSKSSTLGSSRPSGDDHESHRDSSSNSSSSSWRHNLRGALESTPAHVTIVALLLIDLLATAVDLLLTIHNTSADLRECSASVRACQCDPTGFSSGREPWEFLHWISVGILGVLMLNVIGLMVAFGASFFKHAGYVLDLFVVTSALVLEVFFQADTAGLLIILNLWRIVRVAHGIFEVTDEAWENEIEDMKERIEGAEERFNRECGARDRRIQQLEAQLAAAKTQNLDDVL

Compound	inside-out patch-clamp of proton currents [1]	IC50 [2] [µM]	inside-out patch-clamp of proton currents [3]
N=C(N)Nc1nc2ccccc2[nH]1 [2GBI, 2-guanidinobenzimidazole]	Despite some small differences in the extent of inhibition by 2GBI, AtHv1, SmHv1, and PsHv1 shared a low sensitivity	372 ± 28	Despite some small differences in the extent of inhibition by 2GBI, AtHv1, SmHv1, and PsHv1 shared a low sensitivity
N=C(N)Nc1nc2ccc(Cl)cc2[nH]1 [ClGBI, 5-chloro-2-guanidinobenzimidazole]	we tested the effects of 2GBI and ClGBI on AtHv1- and SmHv1-mediated currents post-mechanical stimulation	39 ± 8	we tested the effects of 2GBI and ClGBI on AtHv1- and SmHv1-mediated currents post-mechanical stimulation
